Bounds are passed on as bounds.

The first assay has as its system androgen receptor (AR) in LNCaP and/or VCaP cells. The assay is described as follows: Androgen Receptor ELISA assay (AR degradation). It counts as cell-based. Particulars: LNCaP and/or VCaP cells; 5 hours incubation; media with R1881; read-out: DC50 Code* (degradation of AR ELISA). The method, boiled down: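 VCaP cells grown ≥3 days, then treated 5 h with compound in media containing 1 nM R1881 (10× stock). Cells lysed and AR quantified by sandwich ELISA (mouse AR detection Ab, HRP anti-mouse, TMB). DC50 and Dmax derived from AR degradation.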
On the technique in general: In an ELISA, binding on a coated surface is turned into a signal by an enzyme label.
On to `COc1cc(O[C@H]2C[C@H](N(CC3CCN(c4ncc(C(=O)NC5CC6CC(Oc7cc(C)c(C#N)c(C)c7)CC6C5)cn4)CC3)C(C)C)C2)cc2c1C(=O)N(C1CCC(=O)NC1=O)C2=O` (stereo partly shown) [Compound 2, N-(5-(4-cyano-3,5-dimethylphenoxy)octahydropentalen-2-yl)-2-(4-((((1r,3r)-3-((2-(2,6-dioxopiperidin-3-yl)-7-methoxy-1,3-dioxoisoindolin-5-yl)oxy)cyclobutyl) (isopropyl)amino)methyl)piperidin-1-yl)pyrimidine-5-carboxamide], for which the DC50 is > 100 nM.
Still for that read-out and setting: the figure for `COCCN(CC1CCN(c2cnc(C(=O)N[C@H]3CC[C@H](Oc4ccc(C#N)c(Cl)c4)CC3)cn2)CC1)[C@H]1C[C@H](Oc2ccc3c(c2)C(=O)N(C2CCC(=O)NC2=O)C3=O)C1` (stereo partly shown) [Compound 58, N-((1r,4r)-4-(3-chloro-4-cyanophenoxy)cyclohexyl)-5-(4-((((1r,3r)-3-((2-(2,6-dioxopiperidin-3-yl)-1,3-dioxoisoindolin-5-yl)oxy)cyclobutyl)(2-methoxyethyl)amino)methyl)piperidin-1-yl)pyrazine-2-carboxamide] is < 1 nM; for `COc1cc(O[C@H]2CC[C@H](NC(=O)c3cnc(N4CCC(CN(C)[C@H]5C[C@H](Oc6ccc7c(c6)C(=O)N(C6CCC(=O)NC6=O)C7=O)C5)CC4)cn3)CC2)ccc1C#N` (stereo partly shown) [Compound 39, N-((1r,4r)-4-(4-cyano-3-methoxyphenoxy)cyclohexyl)-5-(4-((((1r,3r)-3-((2-(2,6-dioxopiperidin-3-yl)-1,3-dioxoisoindolin-5-yl)oxy)cyclobutyl) (methyl)amino)methyl)piperidin-1-yl)pyrazine-2-carboxamide] it is < 1 nM; for `CN1C(=O)CCC(N2C(=O)c3cc(F)c(N4CCN(CC5CCN(c6ccc(C(=O)N[C@H]7CC[C@H](Oc8ccc(C#N)c(Cl)c8)CC7)nn6)CC5)CC4)cc3C2=O)C1=O` (stereo partly shown) [Compound 74, N-((1r,4r)-4-(3-chloro-4-cyanophenoxy)cyclohexyl)-6-(4-((4-(6-fluoro-2-(1-methyl-2,6-dioxopiperidin-3-yl)-1,3-dioxoisoindolin-5-yl)piperazin-1-yl)methyl)piperidin-1-yl)pyridazine-3-carboxamide] it is > 100 nM.

The same assay, now with this note: degradation of AR ELISA in LNCaP and/or VCaP cells; Table 2C; read-out: DC50 Code*.
Regarding `[2H]C([2H])([2H])Oc1cc(O[C@H]2C[C@H](N(CC3CCN(c4cnc(C(=O)N[C@H]5C(C)(C)[C@H](Oc6cc(C)c(C#N)c(C)c6)C5(C)C)cn4)CC3)C(C)C)C2)cc2c1C(=O)N(C1CCC(=O)NC1=O)C2=O` (mixture of isomers) [compound 195, rac-N-((1r,3r)-3-(4-cyano-3,5-dimethylphenoxy)-2,2,4,4-tetramethylcyclobutyl)-5-(4-((((1r,3r)-3-((2-(2,6-dioxopiperidin-3-yl)-7-(methoxy-d3)-1,3-dioxoisoindolin-5-yl)oxy)cyclobutyl) (isopropyl)amino)methyl)piperidin-1-yl)pyrazine-2-carboxamide], the DC50 was < 1 nM.
Consider `Cc1cc(O[C@H]2C(C)(C)[C@H](NC(=O)c3cnc(N4CC(CN(C(C)C)[C@H]5C[C@H](Oc6ccc7c(c6)C(=O)N(C6CCC(=O)NC6=O)C7=O)C5)C4)cn3)C2(C)C)cc(C)c1C#N` (stereo partly shown) [compound 131, N-((1r,3r)-3-(4-cyano-3,5-dimethylphenoxy)-2,2,4,4-tetramethylcyclobutyl)-5-(3-((((1r,3r)-3-((2-(2,6-dioxopiperidin-3-yl)-1,3-dioxoisoindolin-5-yl)oxy)cyclobutyl) (isopropyl)amino)methyl)azetidin-1-yl)pyrazine-2-carboxamide], for which the DC50 fell in the range of 1 to 10 nM.
Same read-out and setting: the figure for `Cc1cc(O[C@H]2C(C)(C)[C@H](NC(=O)c3ccc(N4CCC(CN(C(C)C)[C@H]5C[C@H](Oc6ccc7c(c6)C(=O)N(C6CCC(=O)NC6=O)C7=O)C5)CC4)cc3)C2(C)C)cc(C)c1C#N` (stereo partly shown) [compound 104, N-((1r,3r)-3-(4-cyano-3,5-dimethylphenoxy)-2,2,4,4-tetramethylcyclobutyl)-4-(4-((((1r,3r)-3-((2-(2,6-dioxopiperidin-3-yl)-1,3-dioxoisoindolin-5-yl)oxy)cyclobutyl)(isopropyl)amino)methyl)piperidin-1-yl)benzamide] is < 1 nM; for `COCCN(CC1CCN(c2cnc(C(=O)N[C@H]3C(C)(C)[C@H](Oc4cc(C)c(C#N)c(C)c4)C3(C)C)cn2)CC1)[C@H]1C[C@H](Oc2cc3c(cc2OC)C(=O)N(C2CCC(=O)NC2=O)C3=O)C1` (mixture of isomers) [compound 222, rac-N-((1r,3r)-3-(4-cyano-3,5-dimethylphenoxy)-2,2,4,4-tetramethylcyclobutyl)-5-(4-((((1r,3r)-3-((2-(2,6-dioxopiperidin-3-yl)-6-methoxy-1,3-dioxoisoindolin-5-yl)oxy)cyclobutyl)(2-methoxyethyl)amino)methyl)piperidin-1-yl)pyrazine-2-carboxamide] it is < 1 nM; for `Cc1cc(O[C@H]2C(C)(C)[C@H](NC(=O)c3ccc(N4CCC(CN(C)[C@@H]5CC[C@H](Oc6ccc7c(c6)C(=O)N(C6CCC(=O)NC6=O)C7=O)C5)CC4)cc3)C2(C)C)cc(C)c1C#N` (stereo partly drawn) [compound 166, N-((1r,3R)-3-(4-cyano-3,5-dimethylphenoxy)-2,2,4,4-tetramethylcyclobutyl)-4-(4-((((1R,3S)-3-((2-(2,6-dioxopiperidin-3-yl)-1,3-dioxoisoindolin-5-yl)oxy)cyclopentyl) (methyl)amino)methyl)piperidin-1-yl)benzamide] it is < 1 nM.
On the same count and under the same terms, as for `Cc1cc(O[C@H]2C(C)(C)[C@H](NC(=O)c3cnc(N4CCC(CN(C(C)C)[C@H]5C[C@H](Oc6ccc7c(c6)C(=O)N(C6CCC(=O)NC6=O)C7=O)C5)CC4)cn3)C2(C)C)cc(C)c1C#N` (stereo partly shown) [compound 112, N-((1r,3r)-3-(4-cyano-3,5-dimethylphenoxy)-2,2,4,4-tetramethylcyclobutyl)-5-(4-((((1r,3r)-3-((2-(2,6-dioxopiperidin-3-yl)-1,3-dioxoisoindolin-5-yl)oxy)cyclobutyl) (isopropyl)amino)methyl)piperidin-1-yl)pyrazine-2-carboxamide], the figure is < 1 nM; as for `COCCN(CC1CCN(c2ccc(C(=O)N[C@H]3C(C)(C)[C@H](Oc4cc(C)c(C#N)c(C)c4)C3(C)C)cc2)CC1)[C@H]1C[C@H](Oc2cc(OC)c3c(c2)C(=O)N(C2CCC(=O)NC2=O)C3=O)C1` (stereo partly shown) [compound 106, N-((1r,3r)-3-(4-cyano-3,5-dimethylphenoxy)-2,2,4,4-tetramethylcyclobutyl)-4-(4-((((1r,3r)-3-((2-(2,6-dioxopiperidin-3-yl)-7-methoxy-1,3-dioxoisoindolin-5-yl)oxy)cyclobutyl)(2-methoxyethyl)amino)methyl)piperidin-1-yl)benzamide], < 1 nM.
The same measure, in the same setting: as for `CC(C)N(CC1CCN(c2ncc(C(=O)N[C@H]3C(C)(C)[C@H](Oc4ccc(C#N)c(C#N)c4)C3(C)C)cn2)CC1)[C@H]1C[C@H](Oc2ccc3c(c2)C(=O)N(C2CCC(=O)NC2=O)C3=O)C1` (stereo partly shown) [compound 108, N-((1r,3r)-3-(3,4-dicyanophenoxy)-2,2,4,4-tetramethylcyclobutyl)-2-(4-((((1r,3r)-3-((2-(2,6-dioxopiperidin-3-yl)-1,3-dioxoisoindolin-5-yl)oxy)cyclobutyl) (isopropyl)amino)methyl)piperidin-1-yl)pyrimidine-5-carboxamide], the figure is < 1 nM.
For the compound `CC(C)N(CC1CC2(C1)CN(c1ncc(C(=O)N[C@H]3C(C)(C)[C@H](Oc4ccc(C#N)c(Cl)c4)C3(C)C)cn1)C2)[C@H]1C[C@H](Oc2ccc3c(c2)C(=O)N(C2CCC(=O)NC2=O)C3=O)C1` (stereo partly shown) [compound 87, N-((1r,3r)-3-(3-chloro-4-cyanophenoxy)-2,2,4,4-tetramethylcyclobutyl)-2-(6-((((1r,3r)-3-((2-(2,6-dioxopiperidin-3-yl)-1,3-dioxoisoindolin-5-yl)oxy)cyclobutyl) (isopropyl)amino)methyl)-2-azaspiro[3.3]heptan-2-yl)pyrimidine-5-carboxamide], the DC50 is < 1 nM.
`Cc1cc(O[C@H]2C(C)(C)[C@H](NC(=O)c3ccc(N4CCC5(CC4)CN(CCOc4ccc6c(c4)C(=O)N(C4CCC(=O)NC4=O)C6=O)CCO5)cc3)C2(C)C)cc(C)c1C#N` (mixture of isomers) [compound 182, rac-N-((1r,3r)-3-(4-cyano-3,5-dimethylphenoxy)-2,2,4,4-tetramethylcyclobutyl)-4-(4-(2-((2-(2,6-dioxopiperidin-3-yl)-1,3-dioxoisoindolin-5-yl)oxy)ethyl)-1-oxa-4,9-diazaspiro[5.5]undecan-9-yl)benzamide]: the DC50 is < 1 nM.
The same measure, in the same setting: as for `Cc1cc(O[C@H]2C(C)(C)[C@H](NC(=O)c3cnc(N4CCC(CN(CC(F)F)[C@H]5C[C@H](Oc6ccc7c(c6)C(=O)N(C6CCC(=O)NC6=O)C7)C5)CC4)nc3)C2(C)C)cc(C)c1C#N` (stereo partly shown) [compound 109, N-((1r,3r)-3-(4-cyano-3,5-dimethylphenoxy)-2,2,4,4-tetramethylcyclobutyl)-2-(4-(((2,2-difluoroethyl)((1r,3r)-3-((2-(2,6-dioxopiperidin-3-yl)-3-oxoisoindolin-5-yl)oxy)cyclobutyl)amino)methyl)piperidin-1-yl)pyrimidine-5-carboxamide], the figure is < 1 nM.

Still in this assay, the particulars now being: degradation of AR ELISA in LNCaP and/or VCaP cells; read-out: DC50 Code*.
As for `COCCN(CC1CCN(c2nc(C)c(C(=O)N[C@H]3C(C)(C)[C@H](Oc4ccc(C#N)c(OC)c4)C3(C)C)c(C)n2)CC1)[C@H]1C[C@H](Oc2ccc3c(c2)C(=O)N(C2CCC(=O)NC2=O)C3=O)C1` (mixture of isomers) [compound 240, rac-N-((1r,3r)-3-(4-cyano-3-methoxyphenoxy)-2,2,4,4-tetramethylcyclobutyl)-2-(4-((((1r,3r)-3-((2-(2,6-dioxopiperidin-3-yl)-1,3-dioxoisoindolin-5-yl)oxy)cyclobutyl)(2-methoxyethyl)amino)methyl)piperidin-1-yl)-4,6-dimethylpyrimidine-5-carboxamide], the DC50 was 1 to 10 nM.

As a reminder, the DC50 is the concentration giving 50% degradation.

These data come from US20260053932A1, “COMPOUNDS AND METHODS FOR THE TARGETED DEGRADATION OF ANDROGEN RECEPTOR AND ASSOCIATED METHODS OF USE” (Arvinas Operations, Inc., priority 2020, published 2026).
